Results on two compounds are retold here after paper PMC6278385, “Preclinical Pharmacokinetics of C118P, a Novel Prodrug of Microtubules Inhibitor and Its Metabolite C118 in Mice, Rats, and Dogs” (Molecules, 2018).

Data set [1] in a line: Plasma protein binding by ultrafiltration.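 Further: fu expressed in percent not as a fraction.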 The conditions noted are these: beagle, dog plasma, read-out: fu (fraction unbound). It is filed as in vitro ADME, beagle dogs. As to the method:
(§1) Both C118P and C118 were stable in the plasma with EDTA as anticoagulant. The non-specific binding to the ultrafilter membrane was negligible. The extent of plasma protein binding was reported as a fraction unbound (fu, %) value which was calculated using the formula fu = PF/TC × 100%, where TC is test compound (C118P or C118) concentration in sample before ultrafiltration, and PF is the test compound concentration in the ultrafiltrate (Table 1).
(§2) Plasma protein binding of C118P and C118 were determined by ultrafiltration at four concentrations (C118P: 400, 4000, 40,000, and 400,000 ng/mL, C118: 20, 200, 2000, and 20,000 ng/mL) in pooled plasma from Sprague-Dawley rats, beagle dogs, and humans. Stock solutions of C118P and C118 dissolved in methanol were diluted with blank plasma to achieve the test concentrations (the methanol volume is less than 10% of the plasma). The plasma was incubated for 1 h in a water bath at 37 °C. The total concentration of C118P and C118 of spiked plasma (TC) was analyzed by previously described methods. Ultrafiltration was performed with activated high speed centrifugal tubes (Millipore, Burlington, MA, USA). Plasma samples (0.4 mL) were added to the upper layer of the high speed centrifugal tubes, and then centrifuged at 12,000 g for 10 min. The concentration of unbound C118P and C118 in filtrate (PF) was similarly determined by the previously described methods. The percentage of free fraction (fu) of C118P and C118 was calculated as follows: fu = (PF/TC) × 100%.

Data set [2] can be described thus: Tandem two-compartment PK model of C118P and C118. It is filed as in vivo, rat. To be noted: for K12 / K21 / V1 / K10: rat; for K12 / K21 / V1: two-compartmental model parameter (Table S1); for K10: two-compartmental model, K10 supposed to be transformation rate of C118P into C118, simulated. The text has this:
Due to the rapid transformation of C118P into C118, there is no direct way to calculate the rate of transformation, thus a two-compartment model with metabolism involved was developed (Figure S3). The transformation rate from C118P into C118 was simulated by fitting the two-serial data of prodrug C118P and C118 in rats and dogs.
3. The pharmacokinetic profile of C118P and C118 was simulated by two compartmental models. To simplify the model, the excretion rate of C118P from central compartment was supposed to be zero. In this model, both C118P and C118 were described by two-compartmental model, with elimination rate of k(0,3) for C118. The connection between C118P and C118 is by the uniflow of transformation rate of k(3,1) since the metabolism of C118P to C118 is irreversible(Figure S3).
Figure S3. The pharmacokinetic model of C118P and C118 in rat after i.v C118P. ex1: the injection dose of C118P, s1: concentration of C118 in central compartment. s2: concentration of C118 in central compartment, q1 and q3 represent the central compartment of C118P and C118, respectively.
The q2 and q4 represent the peripheral compartment of C118P and C118, respectively. k(0,3) represents the elimination rate of C118 from central compartment. k(3,1) represents the transformation rate of C118P to C118. k(2,1) and k(4,3) represent the distribution rate of C118P and C118 from central compartment to peripheral compartment. k(1,2) and k(3,4) represent the return rate of C118P and C118 from peripheral compartment to central compartment.
For prodrug pharmacokinetic prediction, the transformation of prodrug to the active drug should be studied in different system to get the right data. With the help of modeling, the transformation ratio of C118P to C118 was calculated by a tandem two-compartment model (SAAMII, University of Washington). In simulation study, the initial parameters are very important for accurate prediction.
The initial compartmental model parameters of rat and dog were first evaluated by Winnonlin using two-compartmental model at low dose, with intravenous for C118P and extra vessel for C118 since […]
(1 picture or pasted object on this page, not shown here)
C118 was transformed from C118P. The initial parameters used in the simulation were listed in Table S1. Using these parameters, the simulation of PK profiles of rat and dog are well fit to the data from in vivo at higher dose (Figure S4). The simulation of C118P and C118, the transformation rate of C118P to C118 is calculated and transformation ratio (k) is about 18.3671/h and12.588 1/h for rats and dogs, respectively.
Figure S4. The simulation of PK profile at 20 mg/kg in rat(A) and 6 mg/kg(B) in dog based on initial parameters calculated by Winnonlin. (s1 represent the simulated data for C118 and s2 represent the simulated data for C118P, plasma 1 represent the experimental data for C118 and plasma 2 represent the experimental data for C118P.) […]

Data set [3] can be described thus: Plasma protein binding by ultrafiltration.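 Further: fu expressed in percent not as a fraction.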 It is filed as in vitro ADME, Sprague-Dawley rats. To be noted: Sprague-Dawley, rat plasma, read-out: fu (fraction unbound). The method, then: as §1, §2
The nature of data set [4]: PK in tumor-bearing nude mice after i.v. C118P. In kind it is in vivo, nude mice (BALB/cA) implanted with NCI-H460 tumor. To be noted: for concentration at 2 min: read-out: C2min. As to the method: The nude mice (BALB/cA) implanted with NCI-H460 tumor were provided by Shanghai Institute of Materia Medica. A total of 36 mice were divided into 9 groups with four animals in each group. After fasting overnight with free access to water, the mice were treated with 75 mg/kg C118P by i.v. The blood samples were collected at 2, 10, 20, 40 min, 1, 2, 4, 8, 12 h after treatment and the mice were anaesthetized and decapitated to obtain the blood and tumor tissue. Blood, brain, muscle, ovary, and lung from mice in the PK study were collected at 10 min, 1, 4, and 12 h. Tissues were cleaned by absorbent filter paper to remove the blood. Bloods were centrifuged at 10,000× g for 5 min. Each tissue (0.2 g) was homogenized with 2 mL water. The plasma samples and the homogenates were then processed and determined by the method described above. The concentration was determined by the calibration curve and the actual concentration was corrected by multiplying by 10 according to the dilution times.
The area under the plasma-concentration-versus-time curve from 0 to infinite (AUC0-inf), the elimination half-life (t1/2), the systemic plasma clearance (CL) and the volume of distribution (V) were calculated by non-compartmental analysis with WinNonlin software v6.3 (Pharsight Corporation, St. Louis, MO 63144, USA) from the plasma concentration data of C118P and C118, respectively. The instantaneous concentrations after intravenous to rats (C30s) or dogs (C2min) were obtained directly from the observed data.

[5] abbreviates: nude mice, tumor, i.v. C118P 75 mg/kg, n = 4.
Where [6] appears, read: pooled plasma, C118 20,000 ng/mL.

Molecules are shown by their SMILES. Where two headings read alike, the source gives them in different places.

As usually defined, the fraction unbound is the share of the substance not bound to proteins or other matrix. The term half-life denotes the time in which the quantity being followed falls by half. Low values mean rapid decline, high ones slow decline.

`COc1cc(OC)cc(-c2nc[nH]c2-c2ccc(OC)c(OP(=O)([O-])[O-])c2)c1.[Na+].[Na+]` [C118P]: the figures for the fraction unbound at 1 h, 400 ng/mL in data set [1] (C118P 400 ng/mL) and in data set [3] (C118P 400 ng/mL) were 0.019 ± 0.001 and 0.032 ± 0.001, respectively. Also, the fraction unbound at 1 h, 4000 ng/mL came out at 0.021 ± 0.001 in data set [1] (C118P 4000 ng/mL) and 0.029 ± 0.001 in data set [3] (C118P 4000 ng/mL). Besides, the results for the fraction unbound at 1 h, 40000 ng/mL in data set [1] (C118P 40,000 ng/mL) and in data set [3] (C118P 40,000 ng/mL) were 0.027 ± 0.002 and 0.024 ± 0.001, respectively. For the same compound, the fraction unbound at 1 h, 400000 ng/mL in data set [1] (C118P 400,000 ng/mL) was 0.086 ± 0.003; in data set [3] (C118P 400,000 ng/mL) it was 0.122 ± 0.006. The same compound yielded a K12 in data set [2] of 6.535 h⁻¹. Further, the K21 in data set [2] came to 18.281 h⁻¹. In data set [2], this compound had a V1 of 0.05441 L/kg. The same compound returned a K10 in data set [2] of 18.369 h⁻¹. Also, the “transformation ratio (k) of C118P to C118” value in data set [2] (rats, simulated with tandem two-compartment model) was about 18.367 h⁻¹. The half-life was 1.96 ± 1.07 h in data set [4] (BALB/cA nude, mouse, in vivo, iv, 75 mg/kg, nude mice, plasma, i.v. C118P 75 mg/kg, n = 4) and 1.16 ± 0.76 h in data set [4] (BALB/cA nude, mouse, in vivo, iv, 75 mg/kg, nude mice, tumor, i.v. C118P 75 mg/kg, n = 4). For the same compound, the AUC(0-inf) in data set [4] (BALB/cA nude, mouse, in vivo, iv, nude mice, plasma, i.v. C118P 75 mg/kg, n = 4, read-out: AUC0-inf) is 13500 ng·h/mL; in data set [4] (setting [5]), 217.7 ± 9.3 ng·h/g. In addition, the clearance in data set [4] (BALB/cA nude, mouse, in vivo, iv, nude mice, plasma, i.v. C118P 75 mg/kg, n = 4, read-out: CL (converted)) was 96.9 mL/min/kg. Also, the concentration at 2 min in data set [4] (BALB/cA nude, mouse, in vivo, nude mice, plasma, i.v. C118P 75 mg/kg, n = 4) turned out to be 106 µg/mL; in data set [4] (BALB/cA nude, mouse, in vivo, nude mice, tumor, i.v. C118P 75 mg/kg, n = 4), 292 ± 80.2 ng/g. For the same compound, the V in data set [4] (nude mice, plasma, i.v. C118P 75 mg/kg, n = 4) was 15,404.8 ± 7499.6 mL/kg.
On to `COc1cc(OC)cc(-c2nc[nH]c2-c2ccc(OC)c(O)c2)c1` [C118], for which the fraction unbound at 1 h, 200 ng/mL in data set [1] (pooled plasma, C118 200 ng/mL) worked out at 0.058 ± 0.002; in data set [3] (pooled plasma, C118 200 ng/mL), 0.077 ± 0.008. Moreover, the fraction unbound at 1 h, 2000 ng/mL in data set [1] (pooled plasma, C118 2000 ng/mL) amounted to 0.062 ± 0.004; in data set [3] (pooled plasma, C118 2000 ng/mL), 0.065 ± 0.003. In addition, the fraction unbound at 1 h, 20000 ng/mL in data set [1] (setting [6]) is 0.054 ± 0.004; in data set [3] (setting [6]) it was 0.055 ± 0.001. In data set [2], this compound registered a K12 of 0.3516 h⁻¹. This compound returned a K21 in data set [2] of 0.0121 h⁻¹. In data set [2], this compound gave a V1 of 2.708 L/kg. The K10 in data set [2] is 0.9897 h⁻¹. Also, the concentration at 2 min in data set [4] (BALB/cA nude, mouse, intravenous, nude mice, plasma, i.v. C118P 75 mg/kg, n = 4) came out at 42.5 µg/mL; in data set [4] (BALB/cA nude, mouse, intravenous, nude mice, tumor, i.v. C118P 75 mg/kg, n = 4) it was 13800 ng/g. The half-life was 0.97 ± 0.1 h in data set [4] (BALB/cA nude, mouse, iv, nude mice, plasma, i.v. C118P 75 mg/kg, n = 4) and 3.7 ± 1.48 h in data set [4] (BALB/cA nude, mouse, iv, nude mice, tumor, i.v. C118P 75 mg/kg, n = 4). The AUC(0-inf) is 13400 ng·h/mL in data set [4] (BALB/cA nude, mouse, iv, nude mice, plasma, i.v. C118P 75 mg/kg, n = 4, read-out: AUC0-inf) and 73,027.8 ± 24,951.2 ng × h/g in data set [4] (setting [5]). Further, the clearance in data set [4] (BALB/cA nude, mouse, plasma, iv, 75 mg/kg, mice, in vivo, compared with extrapolated CLH, read-out: Observed CL) was 88.8 mL/min/kg.
